Assay: cn = amount concentration of the nth substance listed, in mol/dm3
Conditions: 101 kPa, Liquid, Taylor dispersion method

NNC(=O)c1ccncc1 [isonicotinic acid hydrazide] + O
binary diffusion coefficient [m2/s]
Conditions | c1 = 0 | c1 = 0.005 | c1 = 0.01 | c1 = 0.02 | c1 = 0.05 | c1 = 0.1
298.15 K | 8.26e-10 | 8.25e-10 | 8.23e-10 | 8.21e-10 | 8.14e-10 | 8.09e-10
310.15 K | 1.19e-09 | 1.18e-09 | 1.15e-09 | 1.11e-09 | 1.09e-09 | 1.04e-09
